Drawing on ChEMBL document CHEMBL3526000 (Drug Metab Dispos, 2012), this text covers Ki and Drug metabolism for one compound.

Data set [1] has as its target T1, UDP-glucuronosyltransferase 2B7 (Homo sapiens, UniProt P16662).
T1 sequence (P16662 whole entry): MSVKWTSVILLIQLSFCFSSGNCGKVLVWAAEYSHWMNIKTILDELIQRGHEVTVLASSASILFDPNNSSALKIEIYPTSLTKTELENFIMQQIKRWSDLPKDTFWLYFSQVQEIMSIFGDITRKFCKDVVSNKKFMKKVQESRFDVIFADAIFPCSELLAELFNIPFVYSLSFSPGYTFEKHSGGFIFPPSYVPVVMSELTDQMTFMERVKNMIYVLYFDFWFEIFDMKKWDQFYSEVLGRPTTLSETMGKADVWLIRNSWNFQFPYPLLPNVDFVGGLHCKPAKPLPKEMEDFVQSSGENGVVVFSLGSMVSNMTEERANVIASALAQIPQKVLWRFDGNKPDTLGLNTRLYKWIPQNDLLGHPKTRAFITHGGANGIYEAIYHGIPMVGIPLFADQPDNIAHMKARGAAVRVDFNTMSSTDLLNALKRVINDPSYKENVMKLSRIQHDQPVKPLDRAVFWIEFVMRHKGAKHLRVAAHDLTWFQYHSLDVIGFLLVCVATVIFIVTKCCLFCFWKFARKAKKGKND
The data set can be described thus: Drug metabolism assessed as recombinant human UGT2B7 assessed as O-glucuronidation measured as inhibition constant at 10 to 400 uM incubated for 60 mins by LC-MS/MS analysis.

The target of data set [2] is T2, UDP-glucuronosyltransferase 1A6 (Homo sapiens, UniProt P19224).
T2 sequence (P19224 whole entry): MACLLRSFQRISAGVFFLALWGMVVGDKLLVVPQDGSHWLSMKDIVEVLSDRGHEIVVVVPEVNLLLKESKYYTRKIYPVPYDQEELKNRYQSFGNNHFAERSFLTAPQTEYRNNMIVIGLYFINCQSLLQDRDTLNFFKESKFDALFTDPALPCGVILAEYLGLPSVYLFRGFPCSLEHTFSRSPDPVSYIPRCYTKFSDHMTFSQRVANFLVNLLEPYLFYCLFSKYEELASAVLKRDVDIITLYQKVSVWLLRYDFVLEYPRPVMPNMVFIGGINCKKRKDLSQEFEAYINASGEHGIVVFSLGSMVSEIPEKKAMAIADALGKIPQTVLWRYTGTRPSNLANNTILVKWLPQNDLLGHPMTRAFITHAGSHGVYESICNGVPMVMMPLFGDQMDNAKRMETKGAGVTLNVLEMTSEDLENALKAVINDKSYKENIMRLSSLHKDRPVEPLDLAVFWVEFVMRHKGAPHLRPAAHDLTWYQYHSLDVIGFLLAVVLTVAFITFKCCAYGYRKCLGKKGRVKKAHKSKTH
As to the kind of experiment: Drug metabolism assessed as recombinant human UGT1A6 assessed as O-glucuronidation at 100 uM incubated for 60 mins by LC-MS/MS analysis. It counts as ADME. The settings on record: recombinant enzyme, 1 h.

Data set [3] deals with T3, UDP-glucuronosyltransferase 1A7 (Homo sapiens, UniProt Q9HAW7).
T3 sequence (Q9HAW7 whole entry): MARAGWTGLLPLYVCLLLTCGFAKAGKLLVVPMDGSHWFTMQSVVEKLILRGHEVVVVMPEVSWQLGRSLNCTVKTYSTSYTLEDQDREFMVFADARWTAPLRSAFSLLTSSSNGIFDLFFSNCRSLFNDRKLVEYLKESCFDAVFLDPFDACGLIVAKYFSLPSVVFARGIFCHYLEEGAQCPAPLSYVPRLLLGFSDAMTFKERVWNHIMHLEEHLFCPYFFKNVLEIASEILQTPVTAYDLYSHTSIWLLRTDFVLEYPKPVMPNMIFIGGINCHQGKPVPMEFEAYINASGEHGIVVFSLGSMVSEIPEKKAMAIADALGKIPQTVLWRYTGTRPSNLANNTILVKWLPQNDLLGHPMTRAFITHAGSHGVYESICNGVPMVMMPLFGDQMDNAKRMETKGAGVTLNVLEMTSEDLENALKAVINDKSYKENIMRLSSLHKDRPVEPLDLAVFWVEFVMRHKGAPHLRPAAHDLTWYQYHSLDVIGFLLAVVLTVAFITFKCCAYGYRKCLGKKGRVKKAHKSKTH
As to the kind of experiment: Drug metabolism assessed as recombinant human UGT1A7 assessed as N-glucuronidation at 100 uM incubated for 60 mins by LC-MS/MS analysis. It counts as ADME. The settings on record: recombinant enzyme, 1 h.

Data set [4] addresses T2, UDP-glucuronosyltransferase 1A6. As to the kind of experiment: Drug metabolism assessed as recombinant human UGT1A6 assessed as N-glucuronidation at 100 uM incubated for 60 mins by LC-MS/MS analysis. The settings on record: recombinant enzyme, 1 h. Type of data set: ADME.
The target in data set [5] is T4, UDP-glucuronosyltransferase 1A1 (Homo sapiens, UniProt P22309).
T4 sequence (P22309 whole entry): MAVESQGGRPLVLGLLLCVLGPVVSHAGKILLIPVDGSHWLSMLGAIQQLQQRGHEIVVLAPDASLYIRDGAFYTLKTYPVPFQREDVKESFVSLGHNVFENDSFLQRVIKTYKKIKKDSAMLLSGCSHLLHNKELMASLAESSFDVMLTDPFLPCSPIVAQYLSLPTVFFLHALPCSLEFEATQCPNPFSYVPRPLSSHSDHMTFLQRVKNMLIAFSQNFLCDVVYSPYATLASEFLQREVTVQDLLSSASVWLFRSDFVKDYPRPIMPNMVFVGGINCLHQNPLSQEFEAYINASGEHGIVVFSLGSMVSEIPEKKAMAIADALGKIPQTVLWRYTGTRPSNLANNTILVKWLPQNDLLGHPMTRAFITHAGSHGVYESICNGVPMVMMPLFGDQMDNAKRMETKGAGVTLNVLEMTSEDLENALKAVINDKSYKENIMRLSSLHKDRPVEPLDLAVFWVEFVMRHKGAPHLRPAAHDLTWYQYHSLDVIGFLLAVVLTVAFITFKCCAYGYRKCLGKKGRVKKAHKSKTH
The data set can be described thus: Drug metabolism assessed as recombinant human UGT1A1 assessed as O-glucuronidation at 100 uM incubated for 60 mins by LC-MS/MS analysis. It counts as ADME. Conditions: recombinant enzyme, 1 h.

Data set [6] has as its target T5, UDP-glucuronosyltransferase 1A3 (Homo sapiens, UniProt P35503).
T5 sequence (P35503 whole entry): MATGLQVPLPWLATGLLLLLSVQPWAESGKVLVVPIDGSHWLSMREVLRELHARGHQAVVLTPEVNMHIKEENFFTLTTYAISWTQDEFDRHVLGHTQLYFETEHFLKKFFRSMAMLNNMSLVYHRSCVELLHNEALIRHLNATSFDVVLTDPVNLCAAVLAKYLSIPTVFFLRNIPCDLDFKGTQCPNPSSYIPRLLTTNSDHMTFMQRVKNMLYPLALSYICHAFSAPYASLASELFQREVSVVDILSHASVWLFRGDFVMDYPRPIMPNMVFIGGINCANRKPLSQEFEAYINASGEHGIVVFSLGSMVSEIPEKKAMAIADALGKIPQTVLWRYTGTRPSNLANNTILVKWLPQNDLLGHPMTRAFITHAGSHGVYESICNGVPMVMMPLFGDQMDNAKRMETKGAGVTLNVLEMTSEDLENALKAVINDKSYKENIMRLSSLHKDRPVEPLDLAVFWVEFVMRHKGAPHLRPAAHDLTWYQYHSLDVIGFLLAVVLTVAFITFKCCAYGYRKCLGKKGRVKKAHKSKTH
As to the kind of experiment: Drug metabolism assessed as recombinant human UGT1A3 assessed as N-glucuronidation at 100 uM incubated for 60 mins by LC-MS/MS analysis. It counts as ADME. Conditions: recombinant enzyme, 1 h.

Broadly, the Ki is the equilibrium dissociation constant of an inhibitor or competing ligand from its target. For `O=C(CCCN1CCC(O)(c2ccc(Cl)cc2)CC1)c1ccc(F)cc1` [HALOPERIDOL], in data set [1], the Ki was 590 µM. In addition, the Drug metabolism result in data set [2], in data set [3], in data set [4], in data set [5] and in data set [6] was “metabolite_not_detected” in each case.
